Patent US20150031686A1, “PHENYL-OXAZOLYL DERIVATIVES, PREPARATION METHOD THEREOF, AND RELATED APPLICATION OF THE PHENYL-OXAZOLYL DERIVATIVES AS AN IMPDH INHIBITOR” (INSTITUTE OF MEDICINAL BIOTECHNOLOGY, CHINESE ACADEMY OF …, priority 2012, published 2015)
In brackets after ≈: the same amount, converted by molar mass.

Key:
hepatitis B virus [1] = experiment: in vitro; settings: human
[2] = system: Coxsackie virus type B6 (COX-B6); experiment: Anti-Coxsackie virus type B6 (COX-B6) activity, CPE in Vero cells; format: cell-based; settings: Reed-Muench
Description: With Vero (African green monkey kidney) cells as viral hosts, inhibitory effects of the compounds of present invention on the grades of pathological lesions by coxsackievirus B3 (COX-B3), B6 (COX-B6) viruses in Vero cells were determined. The measured results of viral inhibitory activity of the compounds are shown in Table 3 and Table 4; wherein RBV is the control drug ribavirin. The inhibitory activities of the measured compounds against coxsackievirus B3, B6 were stronger than the control.
Screening of Anti-B3, B6 Type Coxsackie Viruses (COX-B3, COX-B6) Activity of the Samples
Prepare stock solutions of COX-B3 (or COX-B6) virus strains as well as tested compounds in DMSO before use. Before tests, dilute the stock solution with culture solution into a certain concentration and then dilute 3 times to make a total of eight dilutions. Use ribavirin (RBV) as positive control. Test procedures are as follows: seed Vero cells into 96-well culture plates, infect with 10^−5 Coxsackie virus of B3 (or B6) type, 24 hours later; adsorb subsequently for 2 hours, then discard the virus solution, add in the sample compounds and the positive control according to the abovementioned dilutions, set cell control wells and virus control wells simultaneously. When the cytopathic effect (CPE) of cells in the virus control wells reach 4+, observe CPE of the cells in each group. Use Reed-Muench method to calculate 50% inhibitory concentration (IC50) of the sample compounds against coxsackie virus B3 (or B6) type.

[3] = system: human hepatoma cell HepG2; experiment: In vitro human hepatoma cell HepG2 inhibitory activity (MTT); format: cell-based; settings: Homo sapiens, HepG2, 48 h
Excerpt: (§1) According to the progress in the studies on anticancer drugs using IMPDH as a target, the present invention measured inhibitory activities of the compounds of present invention against human hepatoma cell HepG2 and human lung adenocarcinoma cell A549, respectively, the measured results are shown in Table 5:
In Vitro Human Hepatoma Cell HepG2 Inhibitory Activity Measurement
Collect well growing tumor cells, prepare 6×10^4/ml cell suspension in RPMI-1640 or DMEM culture medium containing 10% FBS, seed in 96-well plates, 100 μl suspension each well, incubate at 37° C. under 5% CO2 atmosphere for 24 h, add the test solution (final concentration of drug: 0.625, 1.25, 2.5, 5.0, 10 μg/ml), for each concentration set three parallel holes, set positive control (cisplatin 10, 1, 0.1 μg/ml) and a blank control simultaneously. After culture for 48 h discard the supernatants, add into each well 10 μl MTT solution (5 mg/ml, prepared with RPMI-1640 medium), continue culturing for 4 It, add into each hole 100 μl acidified isopropanol cell lysate, culture overnight, measure absorbance (A) values with Bio-Tek MQX200 type microplate reader with the detection wavelength at 540 nm, and reference wavelength 450 nm. Calculate the inhibition rate as follows: inhibition rate=(Ablank−Asample)/Ablank control×100%. Use Graphpad Prism 5 statistical software to calculate IC50.

[4] = system: Coxsackie virus type B3 (COX-B3); experiment: Anti-Coxsackie virus type B3 (COX-B3) activity, CPE in Vero cells; format: cell-based; settings: Reed-Muench
Method in brief: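 Vero cells infected with 10^−5 COX-B3 or COX-B6 virus, adsorbed 2 h; virus removed, then compounds added at eight 3-fold dilutions, ribavirin as positive control. CPE scored when virus controls reached 4+; IC50 by Reed-Muench.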

[5] = system: human lung adenocarcinoma cell A549; experiment: In vitro human lung adenocarcinoma cell A549 inhibitory activity (MTT); format: cell-based; settings: Homo sapiens, A549, 48 h
Excerpt: as §1
In Vitro Human Lung Adenocarcinoma Cell A549 Inhibitory Activity Measurement
Cell lines: human lung adenocarcinoma cell A549. Collect well growing tumor cells, prepare cell suspension with Ham's F12 culture solution containing 10% fetal calf serum medium, seed the suspension in 96-well plates, each well 100 μl suspension at 5000 cells/well, incubate at 37° C., under 5% CO2 atmosphere, 24 h later, add 2×drug solution […], each concentration in three parallel holes, set the blank control simultaneously. After culture for 48 h, add 20 μl (5 mg/ml) MTT to each well, culture 4 h, discard the supernatants. Measure absorbance (A) values using Bio-Rad 680 microplate reader at a detection wavelength of 570 nm, the survival rate (%) is calculated as follows: AsampleAblank control×100%. Use statistical software Graphpad Prism5 to calculate IC50. After primary screening of all samples, adjust the concentration gradient of the samples with IC50<100 μg/ml to do additional screenings, which are carried out with two parallel determinations.

IMPDH = IMPDH inhibition activity (A340, IMP substrate, NAD); format: biochemical; settings: compound at 10 μg/mL
Description: Measurement of IMPDH Inhibitor Activity
In 96-well plates, use IMP as the substrate and NAD, NADH as chromogenic agents to determine the activity of the compounds described in this invention as IMPDH inhibitor. Add 2 μl of each of the tested sample solution, 20 μl enzyme extract and 30 μl IMP into a sample well in the 96-well plates; 2 μl DMSO and 30 μl IMP solution into a control well; 2 μl DMSO and 20 μl IMPDH buffer instead of the enzyme extract and 30 μl IMP solution into a blank well. Keep plates at constant 37° C. for 15 min, measure absorbance values A340 (OD1) of the solutions in various wells; subsequently, add into each well with 50 μl NAD, keep at constant 37° C. for 50 min, then measure A340 (OD2) values. Calculate IMPDH inhibition rates of samples as follows: Inhibition (%)=[(OD2−OD1)control−(OD2−OD1)Sample]/[(OD2−OD1)control−(OD2−OD1)Blank]×100%.

hepatitis B virus [6] = settings: cell line 2215, hepatitis B virus
[7] = system: hepatitis B virus strain A64 (lamivudine resistance); experiment: in vitro; settings: human
hepatitis B virus [8] = experiment: microbe, parasite or virus in culture; settings: read-out: IC50 (50% inhibition concentration of the virus)
[9] = system: hepatitis B virus strain A64 (lamivudine resistance)
[10] = system: hepatitis B virus strain A64 (lamivudine resistance); experiment: microbe, parasite or virus in culture; settings: read-out: IC50 (50% inhibition concentration of the virus)

## COc1cc(NCc2ccc(Cl)s2)ccc1-c1cnco1 [Compound 4, N-(5-chlorothien-2-ylmethyl)-3-methoxy-4-(oxazol-5-yl) aniline]
Hepatitis B virus [1]
  selectivity ratio: 36.8
[2]
  IC50: 0.27 µg/mL (≈ 0.842 µM)
[3]
  IC50: 29.1 µg/mL (≈ 90.7 µM)
[4]
  IC50: 0.44 µg/mL (≈ 1.37 µM)
[5]
  IC50: 16 µg/mL (≈ 50 µM)
IMPDH
  inhibition rate (%) 10 μg/mL: 74.9%
Hepatitis B virus [6]
  TC50 (half toxic concentration): 100 µg/mL (≈ 312 µM)
[7]
  selectivity ratio: > 28.1
Hepatitis B virus [8]
  IC50: 2.72 µg/mL (≈ 8.48 µM)
[9]
  TC50 (half toxic concentration): > 50 µg/mL
[10]
  IC50: 1.78 µg/mL (≈ 5.55 µM)
